Experimental data from patent US9403801B2 (Calitor Sciences, LLC, priority 2014, dated 2016).

Assays:
[1] = biological target: JAK2 (h) (Homo sapiens (Human), UniProt O60674); assay: JAK2 kinase assay (33P-ATP filter binding, Millipore); assay type: biochemical
Description: (§1) Kinase assays can be performed by measurement of incorporation of γ-^33P ATP into immobilized myelin basic protein (MBP). High binding white 384 well plates (Greiner) are coated with MBP (Sigma #M−1891) by incubation of 60 μL/well of 20 μg/mL MBP in Tris-buffered saline (TBS; 50 mM Tris pH 8.0, 138 mM NaCl, 2.7 mM KCl) for 24 h at 4° C. Plates are washed 3× with 100 μL TBS. Kinase reactions are carried out in a total volume of 34 μL in kinase buffer (5 mM Hepes pH 7.6, 15 mM NaCl, 0.01% bovine gamma globulin (Sigma #I-5506), 10 mM MgCl2, 1 mM DTT, 0.02% TritonX-100). Compound dilutions are performed in DMSO and added to assay wells to a final DMSO concentration of 1%. Each data point is measured in duplicate, and at least two duplicate assays are performed for each individual compound determination. Enzyme is added to final concentrations of 10 nM or 20 nM, for example. A mixture of unlabeled ATP and γ-^33P ATP is added to start the reaction (2×10^6 cpm of γ-^33P ATP per well (3000 Ci/mmole) and 10 μM unlabeled ATP, typically. The reactions are carried out for 1 h at room temperature with shaking. Plates are washed 7× with TBS, followed by the addition of 50 μL/well scintillation fluid (Wallac). Plates are read using a Wallac Trilux counter. This is only one format of such assays; various other formats are possible, as known to one skilled in the art.
(§2) The above assay procedure can be used to determine the IC50 for inhibition and/or the inhibition constant, Ki. The IC50 is defined as the concentration of compound required to reduce the enzyme activity by 50% under the condition of the assay. The IC50 value is estimated by preparing a 10 point curve using a 1/2 log dilution series (for example, a typical curve may be prepared using the following compound concentrations: 3 μM, 1 μM, 0.3 μM, 0.1 μM, 0.03 μM, 0.01 μM, 0.003 μM, 0.001 μM, 0.0003 μM and 0 μM).
(§3) The kinase assays described herein were performed at Millipore UK Ltd, Dundee Technology Park, Dundee DD2 1SW, UK.

[2] = biological target: JAK1 (h) (Homo sapiens (Human), UniProt P23458); assay: JAK1 kinase assay (33P-ATP filter binding, Millipore); assay type: biochemical
JAK1 (h), sequence (P23458 whole entry): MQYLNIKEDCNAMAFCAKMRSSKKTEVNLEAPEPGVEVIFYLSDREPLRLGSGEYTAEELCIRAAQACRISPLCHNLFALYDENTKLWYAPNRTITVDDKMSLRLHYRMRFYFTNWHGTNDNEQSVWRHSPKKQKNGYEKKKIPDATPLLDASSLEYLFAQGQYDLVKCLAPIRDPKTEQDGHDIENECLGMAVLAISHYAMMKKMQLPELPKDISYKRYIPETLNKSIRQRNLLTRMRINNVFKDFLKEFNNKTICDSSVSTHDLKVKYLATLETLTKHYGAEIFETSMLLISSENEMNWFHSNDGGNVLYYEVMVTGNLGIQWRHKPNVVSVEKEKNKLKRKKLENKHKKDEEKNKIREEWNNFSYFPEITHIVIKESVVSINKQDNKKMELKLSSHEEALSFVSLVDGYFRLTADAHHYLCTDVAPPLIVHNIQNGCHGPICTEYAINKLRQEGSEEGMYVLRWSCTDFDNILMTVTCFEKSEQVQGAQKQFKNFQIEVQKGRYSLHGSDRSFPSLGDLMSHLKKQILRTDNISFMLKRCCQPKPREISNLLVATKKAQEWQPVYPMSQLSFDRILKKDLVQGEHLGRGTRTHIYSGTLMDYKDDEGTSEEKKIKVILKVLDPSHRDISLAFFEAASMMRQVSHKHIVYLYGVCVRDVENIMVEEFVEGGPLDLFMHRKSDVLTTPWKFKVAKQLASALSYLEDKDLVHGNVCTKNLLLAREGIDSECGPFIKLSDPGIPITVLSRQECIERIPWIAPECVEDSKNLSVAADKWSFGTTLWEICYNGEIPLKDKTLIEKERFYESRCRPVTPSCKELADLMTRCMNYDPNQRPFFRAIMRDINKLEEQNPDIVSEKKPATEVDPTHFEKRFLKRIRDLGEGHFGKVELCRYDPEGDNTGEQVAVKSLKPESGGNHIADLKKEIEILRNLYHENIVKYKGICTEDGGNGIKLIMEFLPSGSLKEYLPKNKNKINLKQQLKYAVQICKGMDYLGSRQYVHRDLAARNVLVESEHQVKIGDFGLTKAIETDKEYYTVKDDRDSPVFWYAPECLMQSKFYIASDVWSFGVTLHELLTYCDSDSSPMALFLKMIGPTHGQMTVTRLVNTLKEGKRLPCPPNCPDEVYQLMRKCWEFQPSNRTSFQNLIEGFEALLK
Description: as §1, §2, §3

[3] = Pharmacokinetics after intravenous and oral administration in rats; assay type: in vivo; conditions: for Clearance (CL) after iv dosing / AUC(0-t) / half-life / Vd: dose 1 mg/kg (Ex. 27: 0.72 mg/kg), iv dosing; for F: oral bioavailability; for AUC(0-t) / half-life / Vd: rat, plasma; for Vd: read-out: Vss
Description: The LC/MS/MS system used in the analysis consists of an Agilent 1200 Series vacuum degasser, binary pump, well-plate autosampler, thermostatted column compartment, the Agilent G6430 Triple Quadrupole Mass Spectrometer with an electrosprayionization (ESI) source. Quantitative analysis was carried out using MRM mode. The parameters for MRM transitions are in the Table A.
An Agilent XDB-C18, 2.1×30 mm, 3.5 μM column was used for the analysis. 5 μL of the samples were injected. Analysis condition: The mobile phase was 0.1% formic acid in water (A) and 0.1% formic acid in methanol (B). The flow rate was 0.4 mL/min. And the gradient of Mobile phase was in the Table B.
Alternatively, an Agilent 6330 series LC/MS/MS spectrometer equipped with G1312A binary pumps, a G1367A autosampler and a G1314C UV detector were used in the analysis. An ESI source was used on the LC/MS/MS spectrometer. The analysis was done in positive ion mode as appropriate and the MRM transition for each analyte was optimized using standard solution. A Capcell MP-C18 100×4.6 mm I.D., […] column (Phenomenex, Torrance, Calif., USA) was used during the analysis. The mobile phase was 5 mM ammonia acetate, 0.1% MeOH in water (A): 5 mM ammonia acetate, 0.1% MeOH in acetonitrile (B) (70:30, v/v). The flow rate was 0.6 mL/min. Column was maintained at ambient temperature. 20 μL of the samples were injected.
The compounds disclosed herein are assessed in pharmacokinetic studies in mice, rats, dogs or monkeys. The compounds are administered as a water solution, 2% HPMC+1% TWEEN®80 in water solution, 5% DMSO+5% solution in saline, 4% MC suspension or capsule. For the intravenous administration, the animals are generally given at 1 or 2 mg/kg dose. For the oral (p.o.) dosing, mice and rats are generally given 5 or 10 mg/kg dose, and dogs and monkeys are generally given 10 mg/kg dose. The blood samples (0.3 mL) are drawn at 0.25, 0.5, 1.0, 2.0, 3.0, 4.0, 6.0, 8.0, 12 and 24 h time points or 0.083, 0.25, 0.5, 1.0, 2.0, 4.0, 6.0, 8.0 and 24 h time points and centrifuged at 3,000 or 4000 rpm for 2 to 10 min. The plasma solutions are collected, and stored at −20° C. or −70° C. until analyzed by LC/MS/MS as described above.

[4] = Compound stability in rat liver microsomes; assay type: in vitro ADME; conditions: pH 7.4; for half-life at 5 μM: Rat liver microsomes 0.5 mg protein/mL, compound 5 μM, NADPH 1.0 mM, 37° C.; for CLint scaled at 5 μM: Rat liver microsomes, in vivo CLint extrapolated
Description: (§4) Human or rat liver microsomes incubations were conducted in duplicate in polypropylene tubes. The typical incubation mixtures consisted of human or rat liver microsomes (0.5 mg protein/mL), compounds of interest (5 μM) and NADPH (1.0 mM) in a total volume of 200 μL potassium phosphate buffer (PBS, 100 mM, pH 7.4). Compounds were dissolved in DMSO and diluted with PBS such that the final concentration of DMSO was 0.05%. The enzymatic reactions were commenced with the addition of protein after a 3-min preincubation and incubated in a water bath open to the air at 37° C. Reactions were terminated at various time points (0, 5, 10, 15, 30, 60 min) by adding equal volume of ice-cold acetonitrile. The samples were stored at −80° C. until LC/MS/MS assays.
(§5) The concentrations of compounds in the incubation mixtures of human or rat liver microsomes were determined by a LC/MS/MS method. The ranges of the linearity in the concentration range were determined for each tested compounds.
(§6) A parallel incubation was performed using denatured microsomes as the negative control, and reactions were terminated at various time points (0, 15, 60 min) after incubation at 37° C.
(§7) Dextromethorphan (70 μM) was selected as the positive control, and reactions were terminated at various time points (0, 5, 10, 15, 30, 60 min) after incubation at 37° C. Both positive and negative control samples were included in each assay to ensure the integrity of the microsomal incubation system.
(§8) The concentrations of compounds in human or rat liver microsome incubations were plotted as a percentage of the relevant zero time point control for each reaction. The in vivo CLint were extrapolated (ref.: Naritomi, Y.; Terashita, S.; Kimura, S.; Suzuki, A.; Kagayama, A.; and Sugiyama, Y.; Prediction of human hepatic clearance from in vivo animal experiments and in vitro metabolic studies with liver microsomes from animals and humans. Drug Metab. Dispos., 2001, 29: 1316-1324).

[5] = Compound stability in human liver microsomes; assay type: in vitro ADME; conditions: pH 7.4; for half-life at 5 μM: Human liver microsomes 0.5 mg protein/mL, compound 5 μM, NADPH 1.0 mM, 37° C.; for CLint scaled at 5 μM: Human liver microsomes, in vivo CLint extrapolated
Description: as §4, §5, §6, §7, §8

JAK2 (h), sequence (O60674 whole entry): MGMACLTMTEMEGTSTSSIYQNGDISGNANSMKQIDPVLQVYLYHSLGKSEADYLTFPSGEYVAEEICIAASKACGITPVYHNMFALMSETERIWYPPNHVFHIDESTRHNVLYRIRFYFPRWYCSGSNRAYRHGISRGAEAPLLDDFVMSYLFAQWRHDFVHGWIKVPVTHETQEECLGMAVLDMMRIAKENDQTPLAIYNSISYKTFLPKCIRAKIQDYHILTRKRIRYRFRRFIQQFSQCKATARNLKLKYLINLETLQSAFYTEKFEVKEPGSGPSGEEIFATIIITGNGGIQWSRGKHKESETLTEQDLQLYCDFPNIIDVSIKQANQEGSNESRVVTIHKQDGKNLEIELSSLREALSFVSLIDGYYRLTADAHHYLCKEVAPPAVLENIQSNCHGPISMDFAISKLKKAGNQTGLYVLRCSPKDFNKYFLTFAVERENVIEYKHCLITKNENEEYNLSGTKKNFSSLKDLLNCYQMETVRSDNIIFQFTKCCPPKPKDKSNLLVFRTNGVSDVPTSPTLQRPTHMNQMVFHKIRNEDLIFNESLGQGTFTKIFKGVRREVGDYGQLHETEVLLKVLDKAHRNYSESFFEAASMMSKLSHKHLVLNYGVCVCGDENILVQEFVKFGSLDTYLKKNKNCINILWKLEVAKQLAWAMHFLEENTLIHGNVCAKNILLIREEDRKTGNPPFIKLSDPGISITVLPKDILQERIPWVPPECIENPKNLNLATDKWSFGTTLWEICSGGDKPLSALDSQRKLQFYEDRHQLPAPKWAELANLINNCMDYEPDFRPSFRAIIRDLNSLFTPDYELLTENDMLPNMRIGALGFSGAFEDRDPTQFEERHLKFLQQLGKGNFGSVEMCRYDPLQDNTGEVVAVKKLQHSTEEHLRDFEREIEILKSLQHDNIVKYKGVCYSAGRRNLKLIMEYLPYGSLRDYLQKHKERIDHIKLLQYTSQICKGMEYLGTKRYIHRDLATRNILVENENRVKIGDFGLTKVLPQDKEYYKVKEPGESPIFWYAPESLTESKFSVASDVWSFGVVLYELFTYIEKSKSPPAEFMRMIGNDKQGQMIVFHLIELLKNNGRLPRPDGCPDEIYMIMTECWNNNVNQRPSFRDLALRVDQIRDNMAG

| Compound | IC50 [1] [nM] | IC50 [2] [nM] | Clearance (CL) after iv dosing [3] [mL/min/kg] | F [3] [%] | AUC(0-t) [3] [ng·h/mL] | half-life [3] [min] | Vd [3] [L/kg] | half-life at 5 μM [4] [min] | CLint scaled at 5 μM [4] [mL/min/kg] | half-life at 5 μM [5] [min] | CLint scaled at 5 μM [5] [mL/min/kg] |
| --- | --- | --- | --- | --- | --- | --- | --- | --- | --- | --- | --- |
| CN(c1nc(Nc2cnn(C)c2)ncc1Cl)C1CCC2(CCCN(C(=O)CC#N)C2)C1 (stereo not shown) | 7 | 3 |  |  |  |  |  |  |  |  |  |
| Cn1cc(Nc2ncc(Cl)c(NC3CCC4(CCNC4)CC3)n2)cn1 (single isomer, unassigned) [Ex. 13.3A, 5-chloro-N^2-(1-methyl-1H-pyrazol-4-yl)-N^4-(2-azaspiro[4.5]decan-8-yl)pyrimidine-2,4-diamine] | 55 | 2 |  |  |  |  |  |  |  |  |  |
| Cn1cc(Nc2ncc(Cl)c(NC3CCC4(CCNC4)CC3)n2)cn1 (single isomer, unassigned) [Ex. 13.3B, 5-chloro-N^2-(1-methyl-1H-pyrazol-4-yl)-N^4-(2-azaspiro[4.5]decan-8-yl)pyrimidine-2,4-diamine] | 14 | 2 |  |  |  |  |  |  |  |  |  |
| CN(c1nc(Nc2cnn(C)c2)ncc1Cl)C1CCC2(CC1)CCN(C(=O)CC#N)CC2 [Ex. 24, 3-(9-((5-chloro-2-((1-methyl-1H-pyrazol-4-yl)amino)pyrimidin-4-yl)(methyl)amino)-3-azaspiro[5.5]undecan-3-yl)-3-oxopropanenitrile] | 39 | 19 |  |  |  |  |  |  |  |  |  |
| Cn1cc(Nc2ncc(Cl)c(NC3CCC4(CC3)CCN(C(=O)CC#N)CC4)n2)cn1 [Ex. 26, 3-(9-((5-chloro-2-((1-methyl-1H-pyrazol-4-yl)amino)pyrimidin-4-yl)amino)-3-azaspiro[5.5]undecan-3-yl)-3-oxopropanenitrile] | 6 | 2 |  |  |  |  |  |  |  |  |  |
| Cn1cc(Nc2ncc(Cl)c(NC3CC4CN(c5ccc(C#N)cn5)CC4C3)n2)cn1 (stereo not shown) [Ex. 33, 6-(5-((5-chloro-2-((1-methyl-1H-pyrazol-4-yl)amino)pyrimidin-4-yl)amino)hexahydrocyclopenta[c]pyrrol-2(1H)-yl)nicotinonitrile] | 3 | 0.4 | 24.8 | 60.4 | 702 | 147 | 3.33 |  |  |  |  |

Continued, values first:

| IC50 [1] [nM] | IC50 [2] [nM] | Clearance (CL) after iv dosing [3] [mL/min/kg] | F [3] [%] | AUC(0-t) [3] [ng·h/mL] | half-life [3] [min] | Vd [3] [L/kg] | half-life at 5 μM [4] [min] | CLint scaled at 5 μM [4] [mL/min/kg] | half-life at 5 μM [5] [min] | CLint scaled at 5 μM [5] [mL/min/kg] | Compound |
| --- | --- | --- | --- | --- | --- | --- | --- | --- | --- | --- | --- |
| 371 | 20 |  |  |  |  |  |  |  |  |  | Cn1cnc(Nc2ncc(Cl)c(NC3CC4CN(C(=O)CC#N)CC4C3)n2)c1 (stereo not shown) [Ex. 41] |
|  | 2 | 53.2 | 48.1 | 315 | 24.6 | 1.31 | 33.6 | 74 | 62.8 | 27.7 | Cc1nn(C)cc1Nc1ncc(Cl)c(NC2CC3CN(C(=O)CC#N)CC3C2)n1 (stereo not shown) [Ex. 64, 3-(5-((5-chloro-2-((1,3-dimethyl-1H-pyrazol-4-yl)amino)pyrimidin-4-yl)amino)hexahydrocyclopenta[c]pyrrol-2(1H)-yl)-3-oxopropanenitrile] |
|  | 7 | 81.8 | 21.0 | 201 | 16.2 | 2.28 | 21.2 | 117 | 81.5 | 21.3 | Cc1c(Nc2ncc(Cl)c(NC3CC4CN(C(=O)CC#N)CC4C3)n2)cnn1C (stereo not shown) [Ex. 66, 3-(5-((5-chloro-2-((1,5-dimethyl-1H-pyrazol-4-yl)amino)pyrimidin-4-yl)amino)hexahydrocyclopenta[c]pyrrol-2(1H)-yl)-3-oxopropanenitrile] |
|  | 15 | 65.2 | 56.2 | 281 | 28.2 | 1.19 | 12.2 | 204 | 95.6 | 18.2 | CN(c1nc(Nc2cnn(C)c2)ncc1Cl)C1CC2CN(C(=O)CC#N)CC2C1 (stereo not shown) [Ex. 69, 3-(5-((5-chloro-2-((1-methyl-1H-pyrazol-4-yl)amino)pyrimidin-4-yl)(methyl)amino)hexahydrocyclopenta[c]pyrrol-2(1H)-yl)-3-oxopropanenitrile] |
